Test results published in EP0623672A1, “New alkaline serine protease of Paecilomyces lilacinus” (RESEARCH INSTITUTE FOR PLANT PROTECTION, priority 1993, dated 1994).
Where two headings read alike, the source gives them in different places.

Assays:
[1] = molecular target: serine protease of Paecilomyces lilacinus (Purpureocillium lilacinum, UniProt Q01471); assay type: biochemical
Experimental: (§1) Protease activity was determined by a modified procedure of Rinderknecht et al. (1968). Ten mg of Hide Powder Azure (Sigma) was incubated in 50 mM Sodium acetate buffer pH 6.0 with the sample in a final volume of 3 ml in small glass containers. Incubation was at 37 °C in a shaking waterbath (110 strokes(min) till the solution turned blue (between 5 and 30 minutes). Following incubation the samples were put on ice and centrifuged in 1.5 ml Eppendorf cups for 5 minutes at 14.000 g. The absorbance of the supernatant was measured at 595 nm on a Uvikon 940 spectrophotometer. Protease activity of the sample was measured in duplo, averaged and expressed as A₅₉₅ ml⁻¹hr⁻¹ after correction for the blank (Milli Q water).
Several protease inhibitors, SH reducing agents and metal ions were tested on the proteolytic activity of the protease: PMSF, E64, 1.10-phenantroline, pepstatine (Sigma); EDTA, cystein MgCl₂ and CaCl₂ (Merck); DTT (BioRad). The purified enzyme was incubated for 40 minutes at 4 °C with inhibitor. After incubation the protease-activity was determined as previously described. Final inhibitor concentration was 1 mM. Protease activity in the absence of inhibitor was expressed as 100 %.

[2] = test system: proteolytic activity in the culture filtrate; assay: Inhibition of proteolytic activity in the culture filtrate by protease inhibitors; assay type: biochemical, Paecilomyces lilacinus
Experimental: as §1
To identify the nature of the protease the proteolytic activity in the culture filtrate was inhibited with several protease inhibitors. […] Purification of the serine protease(s) was first performed with Benzamidine-Sepharose, an affinity resin for serine proteases of class I (Pharmacia).

Paecilomyces lilacinus = assay: Catabolite repression of protease induction in liquid culture; assay type: cell-based; settings: glucose 0.3 % added each day to MNNC (chitin as substrate); mycelium as inoculum; Figure 2
Experimental: In one experiment mycelium of Paecilomyces lilacinus was used as inoculum. Mycelium was obtained by centrifuging a 6 day old culture of conidia of P. lilacinus in MMNG for 45 minutes at 9000 g. Cultures were grown in a shaking waterbath for several days at 30 °C and 125 strokes per minute. Culture filtrates were obtained by centrifuging cultures for 45 min at 9000 g. Supernatants were concentrated using an Amicon (YM-10 filter) and clarified through a 0.22 µm-filter (Schleicher & Schuell). Pellets were freeze dried and the weigth of the mycelium was measured.
as §1, with “Ten mg of Hide Powder Azure (Sigma) was incubated in 50 mM Sodium acetate buffer pH 6.0 with the sample in a final volume of 3 ml in small glass containers.” left out
To see whether the fungus used glucose as carbon sourece, glucose concentrations were determined in the culture filtrate, of the fungus in MNNG (Figure 1). […]

[3] = 1 mM final, 40 minutes at 4 °C, Figure 7

Chain of serine protease of Paecilomyces lilacinus (Q01471 entry or part of it): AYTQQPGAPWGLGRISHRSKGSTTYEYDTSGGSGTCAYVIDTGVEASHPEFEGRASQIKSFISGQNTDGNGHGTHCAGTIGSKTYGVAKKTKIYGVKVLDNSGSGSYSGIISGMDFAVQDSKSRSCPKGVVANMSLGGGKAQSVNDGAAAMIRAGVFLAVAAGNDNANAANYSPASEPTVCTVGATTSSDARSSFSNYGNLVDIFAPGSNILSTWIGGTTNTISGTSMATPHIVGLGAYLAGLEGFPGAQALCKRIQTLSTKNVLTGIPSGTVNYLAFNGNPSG

Compound | effect on the proteolytic activity of the purified protease [1, 3] | further results
OC(CS)C(O)CS (centres unmarked) [DTT] | did not influence its activity | –
O=C(O)CN(CCN(CC(=O)O)CC(=O)O)CC(=O)O [EDTA] | – | effect on the proteolytic activity of the purified protease [1]: enhanced its activity
O=S(=O)(F)Cc1ccccc1 [PMSF] | – | inhibition of the proteolytic activity in the culture filtrate [2]: most of the protease activity present in the medium was inhibited; inhibition of the activity of the purified protease ([1]; inhibitor 1 mM final, 40 minutes at 4 °C, activity without inhibitor = 100 %, Figure 7): 100%
N[C@@H](CS)C(=O)O [cystein] | did not influence its activity | –
OC[C@H]1OC(O)[C@H](O)[C@@H](O)[C@@H]1O (some centres unmarked) [glucose] | – | induction of protease activity (Paecilomyces lilacinus): repressed
CaCl₂ [Ca⁺⁺] | lowered the protease activity slightly | –
MgCl₂ [Mg⁺⁺] | lowered the protease activity slightly | –
